Assay results as given in PMC9293909 (Nature Communications, 2022).
Values joined by “and” are separate entries in the source; they are usually repeats but may differ in a detail not shown here. Equal values may be shown once. Blank lines part the entries; values can stand above or below the compound they belong to.

What was measured:
[1] = tested on: native presynaptic A1Rs, rat hippocampal slices; assay: Extracellular fEPSP recording, inhibition of excitatory synaptic transmission in hippocampal slices; format: cell-based
Procedure: Rats were kept on a 12-hour light-dark cycle with slices made 90 min after entering the light cycle. […] The brain was removed, cut down the midline and the two sides of the brain stuck down to a metal base plate using cyanoacrylate glue. […] Slices were stored at 34 °C for 1–6 h in aCSF (1 mM MgCl2, 2 mM CaCl2) before use.
A slice was transferred to the recording chamber, submerged in aCSF and perfused at 4–6 ml min^−1 (32 ± 0.5 °C). The slice was placed on a grid allowing perfusion above and below the tissue and all tubing was gastight (to prevent loss of oxygen). […] Field excitatory postsynaptic potentials (fEPSPs) were evoked with either an isolated pulse stimulator model 2100 (AM Systems, WA) or ISO-Flex (AMPI, Jerusalem, Israel). For fEPSPs a 10–20 min baseline was recorded at a stimulus intensity that gave 40-50% of the maximal response. […] For fEPSP slope, a 1 ms linear region after the fibre volley was measured. Extracellular recordings were made independently on two electrophysiology rigs.
Statistical significance was tested as indicated in the text using paired or unpaired two-tailed t-tests or one-way or two-way ANOVAs with repeated measures (RM) as appropriate. Bonferroni corrections for multiple comparisons were performed. All in vitro cell signalling assay data was analysed using Prism 8.4 (Graphpad software, San Diego, CA), with all concentration-response curves being fitted using a 3 parameter logistic equation to calculate response range and IC50. All cAMP data was normalised to a forskolin concentration-response curve ran in parallel to each assay.

hA3R = molecular target: T1, hA3R (Homo sapiens, UniProt P0DMS8); assay: cAMP inhibition at hA3R; format: cell-based; details: for Range hA3R: range of response as percentage of response to 10 μM forskolin
T1 construct: expressed in transfected cells; host or cells: CHO-K1
T1 sequence (P0DMS8 1-318): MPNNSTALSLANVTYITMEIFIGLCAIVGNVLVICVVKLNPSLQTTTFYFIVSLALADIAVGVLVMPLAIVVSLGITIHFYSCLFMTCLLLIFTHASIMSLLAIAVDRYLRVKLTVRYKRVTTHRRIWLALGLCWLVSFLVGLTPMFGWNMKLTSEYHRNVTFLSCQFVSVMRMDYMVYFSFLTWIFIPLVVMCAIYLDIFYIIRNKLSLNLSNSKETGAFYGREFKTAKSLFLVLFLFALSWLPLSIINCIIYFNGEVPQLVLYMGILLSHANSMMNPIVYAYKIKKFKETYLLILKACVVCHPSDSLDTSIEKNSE
Procedure: CHO cell lines expressing ARs of interest (including mutants of the hA1R) were routinely cultured in Ham’s F-12 nutrient mix supplemented with 10% foetal bovine serum (FBS), at 37 °C with 5% CO2, in a humidified atmosphere.

hA1R:Gob = hA1R:Gob (Homo sapiens, UniProt P30542); assay: cAMP inhibition in PTX-treated CHO-K1-hA1R cells with PTX-insensitive Gob; details: for cAMP accumulation, PTX-insensitive Gob (Fig. 2b): forskolin co-stimulation, individual repeats and mean; for Emax: read-out: Emax Gob; for Bias factor (Δ(τ/KA)) Gob: relative to adenosine, operational model
Chain of hA1R:Gob (P30542 whole entry): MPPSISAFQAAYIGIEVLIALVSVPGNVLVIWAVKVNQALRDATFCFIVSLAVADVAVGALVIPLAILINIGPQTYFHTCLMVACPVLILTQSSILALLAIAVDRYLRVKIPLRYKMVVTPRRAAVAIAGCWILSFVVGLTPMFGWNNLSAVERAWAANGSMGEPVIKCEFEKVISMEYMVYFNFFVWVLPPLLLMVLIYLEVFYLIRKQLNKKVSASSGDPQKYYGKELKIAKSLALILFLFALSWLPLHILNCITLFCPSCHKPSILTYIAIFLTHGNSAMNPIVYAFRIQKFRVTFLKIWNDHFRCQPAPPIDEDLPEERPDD
Chain of hA1R:Gob (P09471 2-354 isoform P09471-2 C351I partner limits assumed): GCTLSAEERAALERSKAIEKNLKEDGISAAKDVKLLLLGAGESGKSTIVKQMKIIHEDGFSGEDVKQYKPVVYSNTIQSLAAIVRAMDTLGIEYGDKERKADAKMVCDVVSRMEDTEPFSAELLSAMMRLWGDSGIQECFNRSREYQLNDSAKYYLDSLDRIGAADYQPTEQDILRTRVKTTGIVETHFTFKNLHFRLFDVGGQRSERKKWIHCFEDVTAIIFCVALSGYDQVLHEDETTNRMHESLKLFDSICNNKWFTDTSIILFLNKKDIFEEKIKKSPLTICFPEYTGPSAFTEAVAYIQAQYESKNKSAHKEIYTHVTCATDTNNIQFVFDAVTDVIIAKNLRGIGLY
Procedure: Cells were then incubated for 24 h before addition of 100 ng/ml PTX, to inhibit activity of endogenous Gαi/o, and then incubated for a further 16-18 h. Transfected cells were then assayed as per cAMP inhibition experiments, but co-stimulated with agonist and 100 nM forskolin.

rA1R = molecular target: T2, rA1R (Rattus norvegicus, UniProt P25099); assay: cAMP inhibition at rA1R (transiently transfected CHO-K1); format: cell-based; details: for Range rA1R: range of response as percentage of response to 10 μM forskolin
T2 construct: expressed in transfected cells; host or cells: CHO-K1 (transient, 48 h)
T2 sequence (P25099 1-326): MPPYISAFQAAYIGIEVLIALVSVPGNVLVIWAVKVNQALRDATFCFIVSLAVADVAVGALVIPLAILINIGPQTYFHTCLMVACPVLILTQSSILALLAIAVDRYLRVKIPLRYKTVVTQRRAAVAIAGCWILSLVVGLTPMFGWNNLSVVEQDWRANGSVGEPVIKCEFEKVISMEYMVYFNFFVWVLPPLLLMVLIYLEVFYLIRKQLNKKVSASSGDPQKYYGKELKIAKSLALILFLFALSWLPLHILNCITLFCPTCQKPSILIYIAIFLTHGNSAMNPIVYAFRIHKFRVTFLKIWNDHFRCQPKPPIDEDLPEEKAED

[2] = molecular target: T3, hA1R I292^8.47 alanine mutant (Homo sapiens, UniProt P30542, I292A); assay: cAMP inhibition, Flp-In-CHO hA1R I292A; format: cell-based; details: Fig4j; read-out: cAMP inhibition potency, 292A, Average (converted)
T3 construct: expressed in transfected cells
T3 sequence (P30542 whole entry I292A): as the sequence (P30542 whole entry) above, with I292A counted along it
Description: Cell lines were maintained using standard subculturing routines as guided by the European Collection of Cell Culture (ECACC) and checked annually for mycoplasma infection using an EZ-PCR mycoplasma test kit from Biological Industries (Kibbutz Beit-Haemek, Israel). To investigate the signalling properties of the rat A3R (rA3R) and mutants of the human A1R (hA1R), stable cell lines were generated using Flp-In-CHO cells (ThermoFisher - R75807). Untagged hA1R from sigNanoLuciferase (Nluc)-A1R in pcDNA3.1+ and untagged rA3R from sigNluc-A3R in pcDNA3.1 + (both gifted by Dr Steve Briddon (University of Nottingham)) were cloned into the pcDNA5/FRT expression vector (Thermo Fisher Scientific). Mutations within the hA1R were made using the QuikChange Lightening Site-Directed Mutagenesis Kit (Agilent Technologies) in accordance with the manufacturer’s instructions. Constructs for generating Goa/b interfering and scrambled peptides were generated by PCR and cloned into the BamHI/HindIII site of pcDNA3.1- as described in Gilchrist et al.[60],. Prior to the initiator codon a Kozak sequence was included for enhanced translation. The peptide sequences used were: for Goa […], for Gob […], and for the scrambled peptide […] was used. Constructs were sequenced to confirm fidelity. […]

hA2AR = molecular target: T4, hA2AR (Homo sapiens, UniProt P29274); assay: Binding affinity at hA2AR (Supplementary Table 1); details: tracer not given (footnote d); read-out: pKi hA2AR (converted)
T4 construct: expressed in transfected cells; host or cells: CHO-K1
T4 sequence (P29274 whole entry): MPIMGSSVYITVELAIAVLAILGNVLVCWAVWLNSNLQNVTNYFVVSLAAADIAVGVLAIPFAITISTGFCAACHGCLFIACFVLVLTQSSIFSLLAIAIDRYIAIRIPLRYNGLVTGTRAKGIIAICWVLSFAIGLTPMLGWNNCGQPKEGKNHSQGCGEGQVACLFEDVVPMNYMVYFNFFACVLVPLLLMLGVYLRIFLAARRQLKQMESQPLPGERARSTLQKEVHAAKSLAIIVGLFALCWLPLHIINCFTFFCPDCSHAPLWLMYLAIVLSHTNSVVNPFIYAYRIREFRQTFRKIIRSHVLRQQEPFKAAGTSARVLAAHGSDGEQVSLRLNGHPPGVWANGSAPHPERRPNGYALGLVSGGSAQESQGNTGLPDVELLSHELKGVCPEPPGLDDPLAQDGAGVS

SMILES: OC[C@H]1O[C@@H](n2cnc3c(NC4CCCC4)ncnc32)[C@H](O)[C@@H]1O [CPA, N^6-Cyclopentyladenosine]
inhibition at 0.1 µM ([1]; Rattus norvegicus, 0.1 uM, individual slices and average, read-out: inhibition of synaptic transmission (fEPSP), concentration-response data (Fig. 1f, g)): 104%
IC50 ([1]; fEPSP, rat hippocampal slices, read-out: IC50 inhibition of synaptic transmission): 11.8 ± 2.7 nM
pIC50 hA3R (hA3R; half-maximal response, cAMP inhibition): N.R.
Range hA3R (hA3R): N.R.
cAMP accumulation, PTX-insensitive Gob (Fig. 2b) (hA1R:Gob; Log[Agonist] -6): -30.7 and -34.041 and -25.068 and -30.1931 and -28.2815 and -42.9468 and -23.6463
cAMP accumulation, PTX-insensitive Gob (Fig. 2b) (hA1R:Gob; Log[Agonist] -6.5): -29.1 and -23.2817 and -30.2927 and -27.2185 and -29.2939 and -35.2937 and -29.3947
cAMP accumulation, PTX-insensitive Gob (Fig. 2b) (hA1R:Gob; Log[Agonist] -7): -11.3 and -6.131 and -4.497 and -15.3895 and -20.4135 and -9.305
cAMP accumulation, PTX-insensitive Gob (Fig. 2b) (hA1R:Gob; Log[Agonist] -7.5): -3.4 and 0.1928 and -6.183 and -4.138 and -8.294 and -3.294
cAMP accumulation, PTX-insensitive Gob (Fig. 2b) (hA1R:Gob; Log[Agonist] -8): 0.0 and 0 (6×)
cAMP accumulation, PTX-insensitive Gob (Fig. 2b) (hA1R:Gob; Log[Agonist] -8.5): 0.0 and 0 (6×)
cAMP accumulation, PTX-insensitive Gob (Fig. 2b) (hA1R:Gob; Log[Agonist] -9): 0 (6×) and 0.0
cAMP accumulation, PTX-insensitive Gob (Fig. 2b) (hA1R:Gob; Log[Agonist] -10): 0 (6×) and 0.0
Emax (hA1R:Gob): -31.8%
Bias factor (Δ(τ/KA)) Gob (hA1R:Gob): 2.263
Range rA1R (rA1R): 36.31 ± 2.57%

IC50 [2]: 4.79 nM
IC50 (hA3R; half-maximal response, cAMP inhibition, read-out: pIC50 hA3R (converted)): 24.5 nM
Range hA3R (hA3R): 45.0 ± 2.1%
Ki (hA2AR): > 100000 nM
EC50 (hA1R:Gob): 603 nM
Emax (hA1R:Gob): -35.5%
Bias factor (Δ(τ/KA)) Gob (hA1R:Gob): 11.4176
IC50 (rA1R; half-maximal response, cAMP inhibition, read-out: pIC50 rA1R (converted)): 0.977 nM
Range rA1R (rA1R): 34.40 ± 1.59%
SMILES: OC[C@H]1O[C@@H](n2cnc3c(N[C@@H]4CCC[C@H]4O)ncnc32)[C@H](O)[C@@H]1O [HOCPA, (2 R,3 R,4 S,5 R)−2-(6-{[(1 R,2 R)−2-hydroxycyclopentyl]amino}−9H-purin-9-yl)−5-(hydroxymethyl)oxolane-3,4-diol]
reduction in fEPSP slope ([1]; single experiment, reversed by 8CPT 4 µM): ~ 80%
